This is an account of results in patent US20260199255A1, “LIPID COMPOUNDS AND METHODS OF MAKING AND USE THEREOF” (Ohio State Innovation Foundation, priority 2022, published 2026).

Format in all cases: cell-based
Test [1] relates to Hep3B cell line. The experiment in a line: luciferase mRNA delivery in the Hep3B cell line (in vitro LNP screening). Conditions: LNPs of bile acid derived lipid, DOPE, cholesterol and DMG-PEG; mRNA-encoding firefly luciferase; Hep3B cell line (FIG. 2). The method, then:
(§1) Lipid nanoparticles (LNPs) with synthesized bile acid derived lipids, DOPE, cholesterol and DMG-PEG were prepared and screened in various cell lines using mRNA-encoding firefly luciferase (FIGS. 2-4).

The test system of test [2] is JAWS2 cell line. Nature of the test: luciferase mRNA delivery in the JAWS2 cell line (in vitro LNP screening). The settings on record: LNPs of bile acid derived lipid, DOPE, cholesterol and DMG-PEG; mRNA-encoding firefly luciferase; JAWS2 cell line (FIG. 3). The method, then: as §1
Test [3] concerns C2C12 cell line. The experiment in a line: luciferase mRNA delivery in the C2C12 cell line (in vitro LNP screening). Conditions: LNPs of bile acid derived lipid, DOPE, cholesterol and DMG-PEG; mRNA-encoding firefly luciferase; C2C12 cell line (FIG. 4). The method, then: as §1

In the case of `CCCCCCCCCCCCN(CCCCCCCCCCCC)CCCCCCNC(=O)CC[C@@H](C)[C@H]1CC[C@H]2[C@@H]3CC[C@@H]4C[C@H](O)CC[C@]4(C)[C@H]3C[C@H](O)[C@]12C` [BAL6], in test [1], the mRNA delivery efficiency result is recorded as “more effective mRNA delivery efficiency than other LNPs”.

As to `CCCCCCCCCCCCN(CCCCCCCCCCCC)CCN(CCCCCCCCCCCC)CCNC(=O)CC[C@@H](C)[C@H]1CC[C@H]2[C@@H]3CC[C@@H]4C[C@H](O)CC[C@]4(C)[C@H]3C[C@H](O)[C@]12C` [BAL7], the mRNA delivery efficiency result in test [2] and in test [3] was “high mRNA delivery efficiency” throughout.

Turning to `CCCCCCCCCCCCN(CCCCCCCCCCCC)CCN(CCCCCCCCCCCC)CCNC(=O)CC[C@@H](C)[C@H]1CC[C@H]2[C@@H]3[C@H](O)C[C@@H]4C[C@H](O)CC[C@]4(C)[C@H]3CC[C@]12C` [BAL11], the mRNA delivery efficiency result in test [2] and in test [3] was “high mRNA delivery efficiency” throughout.
